Several values for one entry are separate records, joined by “and”; a condition that tells them apart may be missing. Equal entries are not always repeated. Inconclusive results and toxic doses are left out. Cut-off read from the data, not from the text of the source: active = T/C of 150% or more; inactive = T/C below 125%.
System: L1210 leukemia ip in BDF1 mice, survival T/C
Assay: NCI In Vivo Anticancer Drug Screen. Data for tumor model L1210 Leukemia (intraperitoneal) in B6D2F1 (BDF1) mice
Details: endpoint: mean survival time, higher = longer survival
Method in brief: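 Ratio derived from survival: compound-dosed mice over vehicle-dosed mice, all bearing a transplantable tumor.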

[1] = dose: 50.0 mg/kg/injection, schedule: Q01DX001 (ip), vehicle: saline
[2] = dose: 100.0 mg/kg/injection, schedule: Q01DX001 (ip), vehicle: saline
[3] = dose: 200.0 mg/kg/injection, schedule: Q01DX001 (ip), vehicle: saline
[4] = dose: 100.0 mg/kg/injection, schedule: Q04DX003 (ip), vehicle: saline
[5] = dose: 200.0 mg/kg/injection, schedule: Q04DX003 (ip), vehicle: saline
[6] = dose: 400.0 mg/kg/injection, schedule: Q04DX003 (ip), vehicle: saline
[7] = dose: 50.0 mg/kg/injection, schedule: Q01DX009 (ip), vehicle: saline with Tween-80
[8] = dose: 100.0 mg/kg/injection, schedule: Q01DX009 (ip), vehicle: saline with Tween-80
[9] = dose: 200.0 mg/kg/injection, schedule: Q01DX009 (ip), vehicle: saline with Tween-80
[10] = dose: 100.0 mg/kg/injection, schedule: Q04DX002 (ip), vehicle: gum acacia
[11] = dose: 200.0 mg/kg/injection, schedule: Q04DX002 (ip), vehicle: gum acacia
[12] = dose: 400.0 mg/kg/injection, schedule: Q01DX001 (ip), vehicle: saline
[13] = dose: 400.0 mg/kg/injection, schedule: Q04DX002 (ip), vehicle: gum acacia
[14] = dose: 50.0 mg/kg/injection, schedule: Q01DX009 (ip), vehicle: saline
[15] = dose: 100.0 mg/kg/injection, schedule: Q01DX009 (ip), vehicle: saline
[16] = dose: 25.0 mg/kg/injection, schedule: Q04DX003 (ip), vehicle: saline
[17] = dose: 50.0 mg/kg/injection, schedule: Q04DX003 (ip), vehicle: saline

Measured: T/C

CN=C(N)c1ccc(N=C(N)c2cccc(C(N)=Nc3ccc(C(N)=NC)cc3)c2)cc1
inactive: dose: 15.0 mg/kg/injection, schedule: Q01DX Z (ip), vehicle: saline 97 % of control | dose: 30.0 mg/kg/injection, schedule: Q01DX Z (ip), vehicle: saline 120 % of control

O=C1NCCCC1C(=O)Nc1cccc2c1NCCC2 (centres undefined)
inactive: dose: 100.0 mg/kg/injection, schedule: Q01DX001 (ip), vehicle: Klucel (hydroxypropylcellulose) (HPC) 105 % of control | dose: 200.0 mg/kg/injection, schedule: Q01DX001 (ip), vehicle: Klucel (hydroxypropylcellulose) (HPC) 94 % of control | dose: 400.0 mg/kg/injection, schedule: Q01DX001 (ip), vehicle: Klucel (hydroxypropylcellulose) (HPC) 105 % of control

N=C(N)SCCON1C(=O)c2ccccc2C1=O
inactive: [1] 102 % of control | [2] 108 % of control | [3] 112 % of control

Cc1c(O)c2ccc3ccccc3c2oc1=O
inactive: [4] 97 % of control | [5] 91 % of control

COc1cc(OCc2ccccc2)c([N+](=O)[O-])cc1OC
inactive: [4] 116 % of control | [5] 124 % of control | [6] 112 % of control

COc1cc(CC(=O)NO)cc(OC)c1OC
inactive: dose: 50.0 mg/kg/injection, schedule: Q01DX005 (ip), vehicle: saline with Tween-80 93 % of control | [7] 100 % of control | dose: 100.0 mg/kg/injection, schedule: Q01DX005 (ip), vehicle: saline with Tween-80 110 % of control | [8] 96 % of control | dose: 200.0 mg/kg/injection, schedule: Q01DX005 (ip), vehicle: saline with Tween-80 93 % of control | [9] 100 % of control

O=C(OCCCCCCCOC(=O)c1cccc([N+](=O)[O-])c1)c1cccc([N+](=O)[O-])c1
inactive: dose: 100.0 mg/kg/injection, schedule: Q01DX001 (ip), vehicle: other 98 % of control | dose: 200.0 mg/kg/injection, schedule: Q01DX001 (ip), vehicle: other 101 % of control | dose: 400.0 mg/kg/injection, schedule: Q01DX001 (ip), vehicle: other 107 % of control

O/N=C/c1ccc2c(c1)OCO2
inactive: [1] 96 % of control | [2] 96 % of control | [10] 106 % of control | [3] 102 % of control | [11] 110 % of control | [12] 96 % of control | [13] 92 % of control

CCOC(=O)C(=O)CC1CCCCC1
inactive: [7] 92 % of control | [8] 100 % of control | [9] 100 % of control

O=C(CBr)Nc1cccc(S(=O)(=O)F)c1
inactive: dose: 1.25 mg/kg/injection, schedule: Q01DX009 (ip), vehicle: carboxymethylcellulose (CMC) 89 % of control | dose: 2.5 mg/kg/injection, schedule: Q01DX009 (ip), vehicle: carboxymethylcellulose (CMC) 93 % of control | dose: 2.5 mg/kg/injection, schedule: Q04DX003 (ip), vehicle: carboxymethylcellulose (CMC) 100 % of control | dose: 5.0 mg/kg/injection, schedule: Q01DX009 (ip), vehicle: carboxymethylcellulose (CMC) 86 % of control | dose: 5.0 mg/kg/injection, schedule: Q04DX003 (ip), vehicle: carboxymethylcellulose (CMC) 100 % of control | dose: 10.0 mg/kg/injection, schedule: Q01DX001 (ip), vehicle: carboxymethylcellulose (CMC) 96 % of control | dose: 10.0 mg/kg/injection, schedule: Q04DX003 (ip), vehicle: carboxymethylcellulose (CMC) 93 % of control

O=C(CCCC(=O)NNC(=O)Nc1ccccc1Cl)NNC(=O)Nc1ccccc1Cl
inactive: [1] 102 % of control | [2] 96 % of control | [3] 100 % of control | [12] 93 % of control

COc1ccc(C(=O)NC2C(OC(C)=O)OC(COC(C)=O)C(OC(C)=O)C2OC(C)=O)cc1 (centres undefined)
inactive: [2] 98 % of control and 101 % of control | [3] 96 % of control and 106 % of control | [12] 90 % of control and 89 % of control

CCCCCCCOC(C[N+](=O)[O-])C(Cl)(Cl)Cl (centres undefined)
inactive: dose: 25.0 mg/kg/injection, schedule: Q01DX009 (ip), vehicle: acetone 95 % of control | dose: 50.0 mg/kg/injection, schedule: Q01DX009 (ip), vehicle: acetone 93 % of control | dose: 100.0 mg/kg/injection, schedule: Q04DX003 (ip), vehicle: acetone 99 % of control

CCOC(=O)Cc1cc(Cl)c2ccc(Cl)cc2n1
inactive: [14] 96 % of control | [15] 95 % of control | [4] 101 % of control | dose: 200.0 mg/kg/injection, schedule: Q01DX009 (ip), vehicle: saline 90 % of control | [5] 95 % of control | [6] 92 % of control

c1ccc(-c2nc3ccccc3s2)cc1
inactive: [10] 101 % of control | [11] 111 % of control | [13] 86 % of control

Cc1cc([N+](=O)[O-])cc([N+](=O)[O-])c1OC(=O)c1ccc(N=C(N)N)cc1
inactive: [16] 103 % of control | [14] 102 % of control | [17] 97 % of control | [15] 94 % of control and 91 % of control | [4] 96 % of control and 92 % of control

O=C(CC(O)(C(F)(F)F)C(F)(F)F)c1ccc([N+](=O)[O-])cc1
inactive: dose: 50.0 mg/kg/injection, schedule: Q04DX003 (ip), vehicle: other 102 % of control | dose: 100.0 mg/kg/injection, schedule: Q04DX003 (ip), vehicle: other 100 % of control | dose: 200.0 mg/kg/injection, schedule: Q04DX003 (ip), vehicle: other 100 % of control | dose: 400.0 mg/kg/injection, schedule: Q04DX003 (ip), vehicle: other 104 % of control

COc1cc(/C=C2\CCOC2=O)cc(/C=C2\CCOC2=O)c1O
inactive: dose: 100.0 mg/kg/injection, schedule: Q04DX002 (ip), vehicle: saline with Tween-80 89 % of control

O=C(Nc1ccc(N(CCCl)CCCl)cc1)c1ccc([N+](=O)[O-])cc1
inactive: dose: 50.0 mg/kg/injection, schedule: Q04DX002 (ip), vehicle: saline 104 % of control | dose: 100.0 mg/kg/injection, schedule: Q04DX002 (ip), vehicle: saline 95 % of control | dose: 200.0 mg/kg/injection, schedule: Q04DX002 (ip), vehicle: saline 117 % of control | dose: 400.0 mg/kg/injection, schedule: Q04DX002 (ip), vehicle: saline 114 % of control

CC1(C)C=CN(c2ccccc2)C(=O)O1
inactive: dose: 100.0 mg/kg/injection, schedule: Q04DX002 (ip), vehicle: Klucel (hydroxypropylcellulose) (HPC) 94 % of control | dose: 200.0 mg/kg/injection, schedule: Q04DX002 (ip), vehicle: Klucel (hydroxypropylcellulose) (HPC) 98 % of control | dose: 400.0 mg/kg/injection, schedule: Q04DX002 (ip), vehicle: Klucel (hydroxypropylcellulose) (HPC) 98 % of control

COC(=O)CCNc1c(OC)ccc2ccccc12
inactive: dose: 100.0 mg/kg/injection, schedule: Q01DX009 (ip), vehicle: Klucel (hydroxypropylcellulose) (HPC) 101 % of control | dose: 400.0 mg/kg/injection, schedule: Q01DX009 (ip), vehicle: Klucel (hydroxypropylcellulose) (HPC) 98 % of control

N#CCC[P+](CCC#N)(CCC#N)CCCCCC[P+](CCC#N)(CCC#N)CCC#N
inactive: dose: 100.0 mg/kg/injection, schedule: Q04DX003 (ip), vehicle: saline with Tween-80 98 % of control | dose: 200.0 mg/kg/injection, schedule: Q04DX003 (ip), vehicle: saline with Tween-80 93 % of control

OCCOCCN1CCN(C(c2ccccc2)c2ccc(Cl)cc2)CC1 (centres undefined)
inactive: dose: 12.5 mg/kg/injection, schedule: Q01DX009 (ip), vehicle: saline 103 % of control | dose: 25.0 mg/kg/injection, schedule: Q01DX009 (ip), vehicle: saline 103 % of control | [16] 109 % of control | [14] 103 % of control | [17] 96 % of control | [15] 103 % of control | [4] 93 % of control | [5] 90 % of control

Nc1nc(N)c2[nH]c(CCNc3ccc(C(=O)O)cc3)nc2n1
inactive: dose: 6.25 mg/kg/injection, schedule: Q01DX001 (ip), vehicle: saline with Tween-80 96 % of control | dose: 12.5 mg/kg/injection, schedule: Q01DX001 (ip), vehicle: saline with Tween-80 92 % of control | dose: 25.0 mg/kg/injection, schedule: Q01DX001 (ip), vehicle: saline with Tween-80 94 % of control and 101 % of control | dose: 50.0 mg/kg/injection, schedule: Q01DX001 (ip), vehicle: saline with Tween-80 98 % of control | dose: 100.0 mg/kg/injection, schedule: Q01DX001 (ip), vehicle: saline with Tween-80 102 % of control

CC(=O)Oc1cc(C(C)=O)c(O)c2ccccc12
inactive: dose: 100.0 mg/kg/injection, schedule: Q01DX001 (ip), vehicle: water 95 % of control | dose: 200.0 mg/kg/injection, schedule: Q01DX001 (ip), vehicle: water 93 % of control

From PubChem BioAssay AID248 (DTP/NCI, 2004)
